# Reference: PubChem BioAssay (NCI)
#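 Abbreviation: GI50, concentration required for 50% inhibition of growth. TGI: concentration producing complete growth inhibition.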
# Tests used:
# Assay in all cases: NCI anticancer screen, dose series, 384-well format
# BT-549 breast = tested on: BT-549 breast
# COLO 205 colon = tested on: COLO 205 colon
# SNB-75 CNS = tested on: SNB-75 CNS
# ACHN renal = tested on: ACHN renal
# SF-268 CNS = tested on: SF-268 CNS
# EKVX NSCLC = tested on: EKVX NSCLC
# SK-MEL-28 melanoma = tested on: SK-MEL-28 melanoma
# SNB-19 CNS = tested on: SNB-19 CNS
# SN12C renal = tested on: SN12C renal
# SW-620 colon = tested on: SW-620 colon
# OVCAR-4 ovarian = tested on: OVCAR-4 ovarian
# OVCAR-8 ovarian = tested on: OVCAR-8 ovarian
# SR leukemia = tested on: SR leukemia
# A549 NSCLC = tested on: A549 NSCLC
# NCI-H460 NSCLC = tested on: NCI-H460 NSCLC
# T-47D breast = tested on: T-47D breast
# NCI/ADR-RES ovarian = tested on: NCI/ADR-RES ovarian
# MDA-MB-231 breast = tested on: MDA-MB-231 breast
# 786-0 renal = tested on: 786-0 renal
# SK-OV-3 ovarian = tested on: SK-OV-3 ovarian
# HT29 colon = tested on: HT29 colon
# LOX IMVI melanoma = tested on: LOX IMVI melanoma
# HOP-62 NSCLC = tested on: HOP-62 NSCLC
# OVCAR-5 ovarian = tested on: OVCAR-5 ovarian
# TK-10 renal = tested on: TK-10 renal
# A498 renal = tested on: A498 renal
# RXF 393 renal = tested on: RXF 393 renal
# SF-539 CNS = tested on: SF-539 CNS
# M14 melanoma = tested on: M14 melanoma
# UO-31 renal = tested on: UO-31 renal
# IGROV1 ovarian = tested on: IGROV1 ovarian
# NCI-H522 lung = tested on: NCI-H522 lung
# HCT-15 colon = tested on: HCT-15 colon
# CAKI-1 renal = tested on: CAKI-1 renal
# DU-145 prostate = tested on: DU-145 prostate
# MCF7 breast = tested on: MCF7 breast
# PC-3 prostate = tested on: PC-3 prostate
# MDA-MB-468 breast = tested on: MDA-MB-468 breast
# MDA-MB-435 melanoma = tested on: MDA-MB-435 melanoma
# UACC-62 melanoma = tested on: UACC-62 melanoma
# HCT-116 colon = tested on: HCT-116 colon
# NCI-H23 lung = tested on: NCI-H23 lung
# HL-60(TB) leukemia = tested on: HL-60(TB) leukemia
# SF-295 CNS = tested on: SF-295 CNS
# RPMI-8226 leukemia = tested on: RPMI-8226 leukemia
# MALME-3M melanoma = tested on: MALME-3M melanoma
# SK-MEL-5 melanoma = tested on: SK-MEL-5 melanoma
# U251 glioblastoma = tested on: U251 glioblastoma
# UACC-257 melanoma = tested on: UACC-257 melanoma
# OVCAR-3 ovarian = tested on: OVCAR-3 ovarian
# MOLT-4 leukemia = tested on: MOLT-4 leukemia
# NCI-H226 lung = tested on: NCI-H226 lung
# KM12 colon = tested on: KM12 colon
# CCRF-CEM leukemia = tested on: CCRF-CEM leukemia
# HS 578T breast = tested on: HS 578T breast
# NCI-H322M lung = tested on: NCI-H322M lung
# HCC-2998 colon = tested on: HCC-2998 colon
# HOP-92 NSCLC = tested on: HOP-92 NSCLC
smiles,measurement,setting,value
c1cc(CN2CCCNCCNCCCNCC2)ccc1CN1CCCNCCNCCCNCC1,GI50,BT-549 breast,> 100 µM
same,TGI,BT-549 breast,> 100 µM
same,GI50,COLO 205 colon,> 100 µM
same,TGI,COLO 205 colon,> 100 µM
same,GI50,SNB-75 CNS,> 100 µM
same,TGI,SNB-75 CNS,> 100 µM
same,GI50,ACHN renal,> 100 µM
same,TGI,ACHN renal,> 100 µM
same,GI50,SF-268 CNS,> 100 µM
same,TGI,SF-268 CNS,> 100 µM
same,GI50,EKVX NSCLC,> 100 µM
same,TGI,EKVX NSCLC,> 100 µM
same,GI50,SK-MEL-28 melanoma,> 100 µM
same,TGI,SK-MEL-28 melanoma,> 100 µM
same,GI50,SNB-19 CNS,> 100 µM
same,TGI,SNB-19 CNS,> 100 µM
same,GI50,SN12C renal,> 100 µM
same,TGI,SN12C renal,> 100 µM
same,GI50,SW-620 colon,> 100 µM
same,TGI,SW-620 colon,> 100 µM
same,GI50,OVCAR-4 ovarian,> 100 µM
same,TGI,OVCAR-4 ovarian,> 100 µM
same,GI50,OVCAR-8 ovarian,> 100 µM
same,TGI,OVCAR-8 ovarian,> 100 µM
same,GI50,SR leukemia,> 100 µM
same,TGI,SR leukemia,> 100 µM
same,GI50,A549 NSCLC,> 100 µM
same,TGI,A549 NSCLC,> 100 µM
same,GI50,NCI-H460 NSCLC,> 100 µM
same,TGI,NCI-H460 NSCLC,> 100 µM
same,GI50,T-47D breast,> 100 µM
same,TGI,T-47D breast,> 100 µM
same,GI50,NCI/ADR-RES ovarian,> 100 µM
same,TGI,NCI/ADR-RES ovarian,> 100 µM
same,GI50,MDA-MB-231 breast,> 100 µM
same,TGI,MDA-MB-231 breast,> 100 µM
same,GI50,786-0 renal,> 100 µM
same,TGI,786-0 renal,> 100 µM
same,GI50,SK-OV-3 ovarian,> 100 µM
same,TGI,SK-OV-3 ovarian,> 100 µM
same,GI50,HT29 colon,> 100 µM
same,TGI,HT29 colon,> 100 µM
same,GI50,LOX IMVI melanoma,> 100 µM
same,TGI,LOX IMVI melanoma,> 100 µM
same,GI50,HOP-62 NSCLC,> 100 µM
same,TGI,HOP-62 NSCLC,> 100 µM
same,GI50,OVCAR-5 ovarian,> 100 µM
same,TGI,OVCAR-5 ovarian,> 100 µM
same,GI50,TK-10 renal,> 100 µM
same,TGI,TK-10 renal,> 100 µM
same,GI50,A498 renal,> 100 µM
same,TGI,A498 renal,> 100 µM
same,GI50,RXF 393 renal,> 100 µM
same,TGI,RXF 393 renal,> 100 µM
same,GI50,SF-539 CNS,> 100 µM
same,TGI,SF-539 CNS,> 100 µM
same,GI50,M14 melanoma,> 100 µM
same,TGI,M14 melanoma,> 100 µM
same,GI50,UO-31 renal,> 100 µM
same,TGI,UO-31 renal,> 100 µM
same,GI50,IGROV1 ovarian,> 100 µM
same,TGI,IGROV1 ovarian,> 100 µM
same,GI50,NCI-H522 lung,> 100 µM
same,TGI,NCI-H522 lung,> 100 µM
same,GI50,HCT-15 colon,> 100 µM
same,TGI,HCT-15 colon,> 100 µM
same,GI50,CAKI-1 renal,> 100 µM
same,TGI,CAKI-1 renal,> 100 µM
same,GI50,DU-145 prostate,> 100 µM
same,TGI,DU-145 prostate,> 100 µM
same,GI50,MCF7 breast,> 100 µM
same,TGI,MCF7 breast,> 100 µM
same,GI50,PC-3 prostate,> 100 µM
same,TGI,PC-3 prostate,> 100 µM
same,GI50,MDA-MB-468 breast,> 100 µM
same,TGI,MDA-MB-468 breast,> 100 µM
same,GI50,MDA-MB-435 melanoma,> 100 µM
same,TGI,MDA-MB-435 melanoma,> 100 µM
same,GI50,UACC-62 melanoma,> 100 µM
same,TGI,UACC-62 melanoma,> 100 µM
same,GI50,HCT-116 colon,> 100 µM
same,TGI,HCT-116 colon,> 100 µM
same,GI50,NCI-H23 lung,> 100 µM
same,TGI,NCI-H23 lung,> 100 µM
same,GI50,HL-60(TB) leukemia,> 100 µM
same,TGI,HL-60(TB) leukemia,> 100 µM
same,GI50,SF-295 CNS,> 100 µM
same,TGI,SF-295 CNS,> 100 µM
same,GI50,RPMI-8226 leukemia,> 100 µM
same,TGI,RPMI-8226 leukemia,> 100 µM
same,GI50,MALME-3M melanoma,> 100 µM
same,TGI,MALME-3M melanoma,> 100 µM
same,GI50,SK-MEL-5 melanoma,> 100 µM
same,TGI,SK-MEL-5 melanoma,> 100 µM
same,GI50,U251 glioblastoma,> 100 µM
same,TGI,U251 glioblastoma,> 100 µM
same,GI50,UACC-257 melanoma,> 100 µM
same,TGI,UACC-257 melanoma,> 100 µM
same,GI50,OVCAR-3 ovarian,> 100 µM
same,TGI,OVCAR-3 ovarian,> 100 µM
same,GI50,MOLT-4 leukemia,> 100 µM
same,TGI,MOLT-4 leukemia,> 100 µM
same,GI50,NCI-H226 lung,> 100 µM
same,TGI,NCI-H226 lung,> 100 µM
same,GI50,KM12 colon,> 100 µM
same,TGI,KM12 colon,> 100 µM
same,GI50,CCRF-CEM leukemia,> 100 µM
same,TGI,CCRF-CEM leukemia,> 100 µM
same,GI50,HS 578T breast,> 100 µM
same,TGI,HS 578T breast,> 100 µM
same,GI50,NCI-H322M lung,> 100 µM
same,TGI,NCI-H322M lung,> 100 µM
same,GI50,HCC-2998 colon,> 100 µM
same,TGI,HCC-2998 colon,> 100 µM
same,GI50,HOP-92 NSCLC,> 100 µM
same,TGI,HOP-92 NSCLC,> 100 µM
